Assay results as given in ChEMBL document CHEMBL5154870, “Discovery of novel glutaminase 1 allosteric inhibitor with 4-piperidinamine linker and aromatic heterocycles” (Eur J Med Chem, 2022).

Legend:
[1] = target: T1, Glutaminase kidney isoform, mitochondrial (Homo sapiens, UniProt O94925); test: Allosteric inhibition of human GLS1 using glutamine as substrate incubated for 60 mins by NADH/NADPH-based absorbance analysis
T1 sequence (O94925 whole entry): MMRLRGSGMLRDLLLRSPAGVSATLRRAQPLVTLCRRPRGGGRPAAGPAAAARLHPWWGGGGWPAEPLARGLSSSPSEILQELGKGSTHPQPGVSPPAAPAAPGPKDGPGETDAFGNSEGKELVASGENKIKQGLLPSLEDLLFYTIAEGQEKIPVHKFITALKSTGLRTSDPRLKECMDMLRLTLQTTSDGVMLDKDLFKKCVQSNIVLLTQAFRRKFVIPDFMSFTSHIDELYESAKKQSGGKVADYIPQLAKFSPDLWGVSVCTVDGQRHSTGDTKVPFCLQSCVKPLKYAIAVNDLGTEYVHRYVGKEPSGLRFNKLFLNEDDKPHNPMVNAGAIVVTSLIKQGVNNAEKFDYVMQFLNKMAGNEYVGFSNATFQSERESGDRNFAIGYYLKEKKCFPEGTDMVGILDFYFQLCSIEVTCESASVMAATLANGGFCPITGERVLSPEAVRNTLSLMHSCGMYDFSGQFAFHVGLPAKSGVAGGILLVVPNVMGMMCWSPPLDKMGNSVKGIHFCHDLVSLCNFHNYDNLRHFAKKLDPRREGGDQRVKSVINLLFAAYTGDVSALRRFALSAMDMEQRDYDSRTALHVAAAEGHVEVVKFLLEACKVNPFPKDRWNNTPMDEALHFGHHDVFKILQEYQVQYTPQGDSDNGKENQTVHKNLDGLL

HCT-116 = test: Antiproliferative activity against human HCT-116 cells overexpressing GLS1 assessed as inhibition of cell proliferation measured after 72 hrs by MTT assay; assay type: functional, cell-based; details: HCT-116, 72 h
MDA-MB-436 = test: Antiproliferative activity against human MDA-MB-436 cells overexpressing GLS1 assessed as inhibition of cell proliferation measured after 72 hrs by MTT assay; assay type: functional, cell-based; details: MDA-MB-436, 72 h
[2] = Metabolic stability in human liver microsomes assessed as intrinsic clearance at 10 uM by LC-MS/MS analysis; assay type: ADME, Microsome; details: read-out: CLH
[3] = Metabolic stability in human liver microsomes assessed as half life at 10 uM by LC-MS/MS analysis; assay type: ADME, Microsome; details: liver microsomes
[4] = Metabolic stability in human plasma assessed as parent compound remaining at 1 uM measured after 2 hrs by LC-MS/MS analysis; assay type: ADME, cell-free; details: read-out: Stability
[5] = Metabolic stability in human liver microsomes assessed as parent compound remaining at 10 uM measured after 30 mins by LC-MS/MS analysis; assay type: ADME, Microsome; details: liver microsomes, read-out: Stability
[6] = Metabolic stability in human liver microsomes assessed as parent compound remaining at 10 uM measured after 60 mins by LC-MS/MS analysis; assay type: ADME, Microsome; details: liver microsomes, read-out: Stability

Compound | IC50 [1] | IC50 (HCT-116) | IC50 (MDA-MB-436) | microsomal CLint at 10 µM [2] | half-life at 10 µM [3] | remaining at 2 h, 1 µM [4] | remaining at 0.5 h, 10 µM [5] | remaining at 1 h, 10 µM [6]
O=C(CCc1cn(Cc2ccc(C(F)(F)F)cc2)nn1)Nc1ccc(N2CC[C@@H](Nc3nnc(NC(=O)Cc4ccccn4)s3)C2)nn1 | 0.0103 µM | 0.51 µM | 0.73 µM | – | – | – | – | –
O=C(Cc1ccccc1)Nc1nnc(NC2CCN(c3nnc(NC(=O)CCc4cn(Cc5ccc(C(F)(F)F)cc5)nn4)s3)CC2)s1 | 0.00866 µM | 0.13 µM | 0.51 µM | 23.1 µL/min/mg | 1.27 h | 79% | – | –
O=C(Cc1ccccc1)Nc1nnc(N[C@@H]2CCN(c3nnc(NC(=O)CCc4cn(-c5ccc(C(F)(F)F)cc5)nn4)s3)C2)s1 | 0.0179 µM | 0.85 µM | 2.03 µM | – | – | – | – | –
O=C(CCc1cn(Cc2ccc(OC(F)(F)F)cc2)nn1)Nc1ccc(N2CC[C@H](Nc3nnc(NC(=O)Cc4ccccn4)s3)C2)nn1 | > 1 µM | > 20 µM | > 20 µM | – | – | – | – | –
O=C(Cc1ccccc1)Nc1nnc(N[C@H]2CCN(c3nnc(NC(=O)CCc4cn(Cc5ccc(OC(F)(F)F)cc5)nn4)s3)C2)s1 | 0.381 µM | 10.1 µM | > 20 µM | – | – | – | – | –
COc1ccc(Cn2cc(CCC(=O)Nc3nnc(N4CC[C@H](Nc5nnc(NC(=O)Cc6ccccc6)s5)C4)s3)nn2)cc1 | 0.544 µM | 14.2 µM | > 20 µM | – | – | – | – | –
Cc1ccc(Cn2cc(CCC(=O)Nc3ccc(N4CCC(Nc5nnc(NC(=O)Cc6ccccn6)s5)CC4)nn3)nn2)cc1 | 0.02 µM | 0.57 µM | 0.47 µM | – | – | – | – | –
COc1ccc(Cn2cc(CCC(=O)Nc3ccc(N4CCC(Nc5nnc(N)s5)CC4)nn3)nn2)cc1 | > 10 µM | – | – | – | – | – | – | –
COc1ccc(Cn2cc(CCC(=O)Nc3nnc(N4CCC(Nc5nnc(NC(=O)Cc6ccccc6)s5)CC4)s3)nn2)cc1OC | 0.0775 µM | 3.25 µM | 4.21 µM | – | – | – | – | –
O=C(CCc1cn(Cc2ccc(C(F)(F)F)cc2)nn1)Nc1ccc(N2CC[C@H](Nc3nnc(NC(=O)Cc4ccccn4)s3)C2)nn1 | > 1 µM | > 20 µM | > 20 µM | – | – | – | – | –
COc1ccc(Cn2cc(CCC(=O)Nc3nnc(N4CC[C@@H](Nc5nnc(NC(=O)Cc6ccccc6)s5)C4)s3)nn2)cc1 | 0.057 µM | 0.56 µM | 0.76 µM | – | – | – | – | –
Cc1ccc(Cn2cc(CCC(=O)Nc3ccc(N4CCC(Nc5nnc(N)s5)CC4)nn3)nn2)cc1 | > 10 µM | – | – | – | – | – | – | –
O=C(Cc1ccccc1)Nc1nnc(NC2CCN(c3nnc(NC(=O)c4ccn(Cc5ccc(C(F)(F)F)cc5)n4)s3)CC2)s1 | 0.0174 µM | 0.12 µM | 0.53 µM | 25.2 µL/min/mg | 1.15 h | 76% | – | –
Cc1ccc(Cn2cc(CCC(=O)Nc3nnc(N4CCC(Nc5nnc(NC(=O)Cc6ccccc6)s5)CC4)s3)nn2)cc1 | 0.0124 µM | 0.35 µM | 0.42 µM | – | – | – | – | –
COc1ccc(Cn2cc(CCC(=O)Nc3ccc(N4CCC(Nc5nnc(NC(=O)Cc6ccccn6)s5)CC4)nn3)nn2)cc1OC | 0.0607 µM | 5.75 µM | 6.72 µM | – | – | – | – | –
COc1ccc(Cn2cc(CCC(=O)Nc3nnc(N4CCC(Nc5nnc(NC(=O)Cc6ccccc6)s5)CC4)s3)nn2)cc1 | 0.0147 µM | 0.41 µM | 0.62 µM | – | – | – | – | –
O=C(Cc1ccccc1)Nc1nnc(N[C@@H]2CCN(c3nnc(NC(=O)CCc4cn(Cc5ccc(OC(F)(F)F)cc5)nn4)s3)C2)s1 | 0.0167 µM | 0.58 µM | 1.65 µM | – | – | – | – | –
Cc1ccc(Cn2cc(CCC(=O)Nc3ccc(CCCCc4nnc(NC(=O)Cc5ccccn5)s4)nn3)nn2)cc1 | – | – | – | 40.2 µL/min/mg | 0.655 h | 72% | 56% | 35%
Cc1ccc(Cn2cc(CCC(=O)Nc3nnc(N4CC[C@@H](Nc5nnc(NC(=O)Cc6ccccc6)s5)C4)s3)nn2)cc1 | 0.0166 µM | 0.35 µM | 0.53 µM | – | – | – | – | –
COc1ccc(Cn2cc(CCC(=O)Nc3ccc(N4CCC(Nc5nnc(N)s5)CC4)nn3)nn2)cc1OC | > 10 µM | – | – | – | – | – | – | –
Nc1nnc(NC2CCN(c3ccc(NC(=O)CCc4cn(Cc5ccc(OC(F)(F)F)cc5)nn4)nn3)CC2)s1 | > 10 µM | – | – | – | – | – | – | –
O=C(CCc1cn(Cc2ccc(C(F)(F)F)cc2)nn1)Nc1ccc(N2CCC(Nc3nnc(NC(=O)Cc4ccccn4)s3)CC2)nn1 | 0.0183 µM | 0.53 µM | 0.84 µM | – | – | – | – | –
Cc1cccc(C)c1Cn1cc(CCC(=O)Nc2ccc(N3CC[C@@H](Nc4nnc(NC(=O)Cc5ccccn5)s4)C3)nn2)nn1 | 0.0418 µM | 3.64 µM | 4.29 µM | – | – | – | – | –

Other lines, results leading:

IC50 [1] | IC50 (HCT-116) | IC50 (MDA-MB-436) | microsomal CLint at 10 µM [2] | half-life at 10 µM [3] | remaining at 2 h, 1 µM [4] | remaining at 0.5 h, 10 µM [5] | remaining at 1 h, 10 µM [6] | Compound
0.0678 µM | 6.09 µM | 6.98 µM | – | – | – | – | – | Cc1cccc(C)c1Cn1cc(CCC(=O)Nc2ccc(N3CCC(Nc4nnc(NC(=O)Cc5ccccn5)s4)CC3)nn2)nn1
0.216 µM | 15.5 µM | > 20 µM | – | – | – | – | – | O=C(Cc1ccccc1)Nc1nnc(N[C@H]2CCN(c3nnc(NC(=O)CCc4cn(-c5ccc(C(F)(F)F)cc5)nn4)s3)C2)s1
0.0357 µM | 3.88 µM | 4.48 µM | – | – | – | – | – | COc1ccc(Cn2cc(CCC(=O)Nc3ccc(N4CC[C@@H](Nc5nnc(NC(=O)Cc6ccccn6)s5)C4)nn3)nn2)cc1OC
> 10 µM | – | – | – | – | – | – | – | Nc1nnc(NC2CCN(c3ccc(NC(=O)CCc4cn(Cc5ccc(C(F)(F)F)cc5)nn4)nn3)CC2)s1
> 1 µM | > 20 µM | > 20 µM | – | – | – | – | – | Cc1ccc(Cn2cc(CCC(=O)Nc3ccc(N4CC[C@H](Nc5nnc(NC(=O)Cc6ccccn6)s5)C4)nn3)nn2)cc1
0.0172 µM | 1.24 µM | 1.02 µM | – | – | – | – | – | O=C(CCc1cn(Cc2ccc(OC(F)(F)F)cc2)nn1)Nc1ccc(N2CCC(Nc3nnc(NC(=O)Cc4ccccn4)s3)CC2)nn1
0.0136 µM | 0.7 µM | 0.88 µM | – | – | – | – | – | O=C(CCc1cn(Cc2ccc(OC(F)(F)F)cc2)nn1)Nc1ccc(N2CC[C@@H](Nc3nnc(NC(=O)Cc4ccccn4)s3)C2)nn1
> 10 µM | – | – | – | – | – | – | – | Cc1cccc(C)c1Cn1cc(CCC(=O)Nc2ccc(N3CCC(Nc4nnc(N)s4)CC3)nn2)nn1
0.0171 µM | 0.19 µM | 0.4 µM | – | – | – | – | – | O=C(Cc1ccccc1)Nc1nnc(NC2CCN(c3nnc(NC(=O)CCc4cn(Cc5ccc(OC(F)(F)F)cc5)nn4)s3)CC2)s1
0.312 µM | 12.5 µM | > 20 µM | – | – | – | – | – | Cc1ccc(Cn2cc(CCC(=O)Nc3nnc(N4CC[C@H](Nc5nnc(NC(=O)Cc6ccccc6)s5)C4)s3)nn2)cc1
0.00485 µM | 0.35 µM | 0.84 µM | 15.1 µL/min/mg | 1.91 h | 91% | – | – | CO[C@@H](C(=O)Nc1nnc(NC2CCN(c3nnc(NC(=O)CCc4cn(CC5=CC=C(C(F)(F)F)CC5)nn4)s3)CC2)s1)c1ccccc1
> 1 µM | > 20 µM | > 20 µM | – | – | – | – | – | COc1ccc(Cn2cc(CCC(=O)Nc3ccc(N4CC[C@H](Nc5nnc(NC(=O)Cc6ccccn6)s5)C4)nn3)nn2)cc1
0.227 µM | 8.27 µM | > 20 µM | – | – | – | – | – | O=C(Cc1ccccc1)Nc1nnc(N[C@H]2CCN(c3nnc(NC(=O)CCc4cn(Cc5ccc(C(F)(F)F)cc5)nn4)s3)C2)s1
0.0124 µM | 0.29 µM | 0.63 µM | – | – | – | – | – | O=C(Cc1ccccc1)Nc1nnc(N[C@@H]2CCN(c3nnc(NC(=O)CCc4cn(Cc5ccc(C(F)(F)F)cc5)nn4)s3)C2)s1
0.0237 µM | 0.3 µM | 1.09 µM | 9.21 µL/min/mg | 3.14 h | 95% | – | – | CO[C@H](C(=O)Nc1nnc(NC2CCN(c3nnc(NC(=O)CCc4cn(Cc5ccc(C(F)(F)F)cc5)nn4)s3)CC2)s1)c1ccccc1
0.0249 µM | 1.45 µM | 2.04 µM | – | – | – | – | – | COc1ccc(Cn2cc(CCC(=O)Nc3ccc(N4CCC(Nc5nnc(NC(=O)Cc6ccccn6)s5)CC4)nn3)nn2)cc1
0.0691 µM | 3.96 µM | 4.58 µM | – | – | – | – | – | Cc1cccc(C)c1Cn1cc(CCC(=O)Nc2nnc(N3CCC(Nc4nnc(NC(=O)Cc5ccccc5)s4)CC3)s2)nn1
0.0113 µM | 0.68 µM | 1.54 µM | – | – | – | – | – | COc1ccc(Cn2cc(CCC(=O)Nc3ccc(N4CC[C@@H](Nc5nnc(NC(=O)Cc6ccccn6)s5)C4)nn3)nn2)cc1
0.0089 µM | 0.49 µM | 0.84 µM | – | – | – | – | – | Cc1ccc(Cn2cc(CCC(=O)Nc3ccc(N4CC[C@@H](Nc5nnc(NC(=O)Cc6ccccn6)s5)C4)nn3)nn2)cc1
